Data set [1] in a line: Levofloxacin stability on formulation at elevated temperature / autoclaving. It is filed as physicochemical. The note with it: HPLC, solution equilibrated at 60° C. From the text:
Wet-spinning fibers from a solution of levofloxacin and PLGA results in a product that is porous with a rough surface (on the sub-micron length scale). The internal morphology of the fiber is consistent with fiber prepared in previous work via wet-spinning. (See, e.g., Gao, H., et al., Journal of Controlled Release 2007; 118(3):325-332, the disclosure of which is incorporated herein by reference.) The protuberances on the surface of the fiber are likely the result of the drug forming aggregates on the surface, and/or by the drug distorting the polymer matrix at the surface. Fiber B has larger more discrete protuberances relative to fibers A and C. This may be due to fiber B having suspended particles of drug present in the polymer solution before wet spinning. […] Fiber C was manufactured at an elevated temperature to absolutely assure total drug dissolution in the polymer/DMSO solution. […] (See e.g., Fujimoto, K., et al., Jpn J Pharmacol 1995; 69(4):443-445, the disclosure of which is incorporated herein by reference.)

Data set [2] can be described thus: Isothermal titration calorimetry of octanoic acid with cyclodextrin. It is filed as binding. Conditions: 1:1 complex, DPBS. The procedure:
The binding energy between octanoic acid and -cyclodextrin (-CD) was determined by isothermal titration calorimetry. Briefly, solutions used of […]-CD and 0.2 M octanoic acid were made in DPBS. Ten injections of […] each of the octanoic acid solution were made into 1.37 ml of the cyclodextrin in a Microcal ITC unit. A 1:1 complex is formed with an equilibrium constant of 1900.
A general note: ITC needs no label: the signal is the heat of the interaction.

With `C[C@H]1COc2c(N3CCN(C)CC3)c(F)cc3c(=O)c(C(=O)O)cn1c23` [Levofloxacin, levofloxacin], in data set [1], the “stability after formulation at higher temperatures” value is given as “no other peaks were observed in the HPLC chromatogram”.
The molecule `CCCCCCCC(=O)O` [octanoic acid] had an equilibrium constant in data set [2] of 1900.

The record behind these values is patent US8974814B2, “Layered drug delivery polymer monofilament fibers” (California Institute of Technology, priority 2007, dated 2015).
